# System: severe retinopathy (tractional retinal detachment, IRMA) in SDT rats
# Experiment: Histopathological examination and fluorescein fundus angiography of severe retinopathy in spontaneously diabetic Torii (SDT) rats
# Type: in vivo, rat
# Method: Diabetes mellitus occurs in spontaneously diabetic Torii (SDT) rats at about 20 weeks of age. Accordingly, blood glucose levels were confirmed at about 25 weeks of age, and rats showing an increase in blood glucose level (at least 300 mg/dl) were used in the experiment. The male SDT rats confirmed to develop diabetes mellitus were divided into two groups, that is, 1) untreatment control (n=14) group and 2) SNK-860 treatment (16 mg/kg/day, n=17)group. The compound was mixed with usual feed (CRF-1: Oriental Yeast Co., Ltd.) and then administered into the rats. The CRF-1 solid feed not containing the compound was freely ingested by the control group, while CRF-1 solid feed containing 0.01333% SNK-860 was freely ingested by the SNK-860 treatment group. At 36 weeks of age and at 52 to 58 weeks of age, the rats were anesthetized and then the eyeballs were excised and used in histopathological examination. The SNK-860-containing feed was prepared in the following manner. SNK-860 was weighed and mixed well with a small amount of CRF-1 powdered feed. Thereafter, additional powdered feed was added thereto, stirred well and solidified. The dose established this time was 16 mg/kg. The concentration of this agent in the feed, calculated on the basis of the established dose, the weight of the rat and the amount of the feed ingested for 1 day, was 0.01333%. The histopathological examination was carried out in the following manner. The rat was anesthetized with ether and by intraperitoneal administration of Nembutal, and then the eyeballs were excised. The excised eyeballs were placed in a mixed solution (1:1:2) consisting of 4% glutaraldehyde, 10% neutral formalin and a phosphate buffer (pH 7.2, 0.3 mol/l). After 60 minutes, the eyeball was cut into halves under a stereoscopic microscope and then stored overnight at 4° C. The next morning, the eyeballs were embedded in a usual manner into paraffin to prepare a transverse section containing a bundle of optic nerves. The section was stained with hematoxylin-eosin. Fluorescein fundus angiography was carried out by opening the chest under the same anesthesia, injecting fluorescein dextran (Sigma, 50 mg/1 ml PBS) into the heart, and after 5 minutes, excising the eyeballs. That is, the retina was separated from the excised eyeball, spread on a slide glass to prepare a flat mounted specimen of the retina, then observed with a stereoscopic fluorescent microscope and photographed to evaluate retinopathy. When retinal fold (retinal detachment) accompanied by thickening of the retina around optic nerve head was recognized in the pathological examination, or when fluorescence dye leakage accompanied by retinal vascular tortuosity and/or caliber variation around optic nerve head was recognized in the fluorescein fundus photography, it was assumed that severe retinopathy occurred in the SDT rat. […] That is, it was attempted to clarify the inhibitory effect on the onset by setting a longer duration of the disease.
# [1] = male SDT rats, 16 mg/kg/day in feed from about 25 weeks of age, at 36 weeks of age, pathological examination
smiles,measurement,setting,value
"NC(=O)[C@@H]1C[C@]2(NC(=O)NC2=O)c2cc(F)ccc2O1 [SNK-860, (2S,4S)-6-fluoro-2′,5′-dioxospiro[chroman-4,4′-imidazolidine]-2-carboxamide]",inhibitory effect on the onset of tractional retinal detachment (in words),"SDT rats, long-term administration",strongly inhibited
same,onset of tractional retinal detachment (affected eyes/examined eyes),[1],0/3
same,onset of tractional retinal detachment (percent of eyes),[1],0%
same,degree of onset of tractional retinal detachment or fluorescence dye leakage accompanied by retinal vascular tortuosity and/or caliber variation around optic nerve head (affected eyes/examined eyes),"male SDT rats, 16 mg/kg/day in feed from about 25 weeks of age, at 52-58 weeks of age, untreated 7/11 eyes",3/14
same,degree of onset of tractional retinal detachment or fluorescence dye leakage accompanied by retinal vascular tortuosity and/or caliber variation around optic nerve head (percent of eyes),"male SDT rats, 16 mg/kg/day in feed from about 25 weeks of age, at 52-58 weeks of age, untreated 64%",21%

# Source: patent US20070299119A1, “Prophylactic or Therapeutic Agent for Severe Diabetic Retinopathy” (SANWA KAGAKU KENKYUSHO CO., LTD., priority 2004, published 2007)
